By melting point is commonly meant the temperature, or range, at which the solid turns liquid.

Turning to `O=C(c1cc(Cl)ccc1Cl)N1CCNC1=Nc1ccc(Cl)cc1Cl`, the melting point lay within 205 to 206 °C.

The compound `CS(=O)(=O)c1ccc(CN2CCN(C(=O)N3CCC(c4cn[nH]c4)C3)c3ccccc32)cc1` (stereo not given) displayed a melting point of 239 °C.

`Cc1ccc(NCC2CCN(C3CCOCC3)CC2)c(C(=O)Nc2ccc(Cl)cn2)c1` returned a melting point of 178 to 182 °C.

`O=S1(=O)N=CN(C2CC2)c2cc(F)cc(Cl)c21` registered a melting point of 252 to 255 °C.

`O=C(O)c1cc2ccccc2c(=O)o1` showed a melting point of 241 to 242 °C.

The compound `CN1CCNC(C(=O)Cn2c(-c3cc(Cl)ccn3)nc3cccnc32)C1` (stereo not given) yielded a melting point of 174 to 175 °C.

Turning to `Clc1nc(-c2ccccn2)[nH]c1I`, the melting point is 188 to 189 °C.

`CC(=O)OC1CSC(Oc2cncc(-c3cc4ccccc4s3)c2)C(OC(C)=O)C1OC(C)=O` (stereo not given) yielded a melting point of 168 °C.

For `O=C(c1ccc(-c2ccccc2)cc1)c1cccnc1Cl`, the melting point was in the range of 128 to 132 °C.

`COC(=O)Cc1ccccc1Cc1ccccc1C(=O)O` returned a melting point of 121 to 123 °C.

Take `COC(=O)NC1CCc2sc(C3=NNC(=O)CC3)cc2C1` (stereo not given): the melting point lay in the range of 205 to 206 °C.

In the case of `CCC1CC(=O)N(CCc2ccc(NC(=O)c3ccno3)cc2)N=C1c1ccc(OC)c(OC)c1` (stereo not given), the melting point came to 196 °C.

For the compound `CCOC(=O)COc1cccc(Br)c1CC(=O)O`, the melting point was in the range of 181 to 183 °C.

For `O=C(Nc1ccc(Br)cc1-c1noc(=O)[nH]1)c1cccc(S(=O)(=O)N2CCOCC2)c1`, the melting point is 220 to 223 °C.

The compound `CC(SC1COC(C2([N+](=O)[O-])C=CC(C(=O)Nc3ccccc3)=CC2)OC1)C(O)(Cn1cncn1)c1ccc(F)cc1F` (stereo not given) registered a melting point of 189 °C.

For `NC(=O)c1nnn(Cc2ccc(C(=O)c3ccc(Cl)cc3)cc2)c1N`, the melting point lay in the range of 229 to 231 °C.

Regarding `Cc1ccc(Nc2nc(=O)c3cccnc3s2)cc1`, the melting point lay in the range of 208 to 209 °C.

As for `CCN1CCC(c2ccc(Br)cc2)CC1`, the melting point lay in the range of 33 to 34 °C.

As to `OCc1conc1-c1ccc(Cl)c(F)c1`, the melting point lay within 124 to 125 °C.

In the case of `Cn1c(-c2ccc([N+](=O)[O-])cc2)nc2ccccc21`, the melting point was 208 to 209 °C.

For the compound `CCc1c(Sc2ccccc2)n(CC2CC=CC2)c(=O)[nH]c1=O`, the melting point lay in the range of 112 to 113 °C.

`CCCCn1cc(C(=O)OCC)c(NC(=S)Nc2ccccc2)n1`: the melting point lay within 93 to 95 °C.

On to `Brc1ccccc1OCc1ccc2ccccc2n1`, for which the melting point lay in the range of 115 to 117 °C.

For the compound `COc1ccc2oc(C(C)N(O)C(N)=O)cc2c1` (stereo not given), the melting point fell in the range of 149 to 151 °C.

For the compound `Cn1c(C(F)(F)F)cc(=O)n(-c2cc(OCSc3ccccc3)c(Cl)cc2F)c1=O`, the melting point is 91 to 94 °C.

Compound `C#CCNC(=S)Cc1ccccn1` yielded a melting point of 62 to 63 °C.

As for `O=C(O)c1cn(-c2cccs2)c2cc(F)c(F)cc2c1=O`, the melting point was in the range of 245 to 246 °C.

`Cn1cc(C2=C(c3cn(CCCO)c4ccccc34)C(=O)NC2=O)c2ccccc21` gave a melting point of 185 to 187 °C.

As to `CCn1c(=O)c2cccc3c2n(c1=O)-c1cc(C(F)(F)F)ccc1S3`, the melting point fell in the range of 150 to 152 °C.

As for `CCOC(=O)c1c(Cn2cncn2)nc2sc3c(c2c1-c1ccc(OC)c(OC)c1)CN(C(=O)OCc1ccccc1)CC3`, the melting point lay within 169 to 170 °C.

Take `C=C[C@@H]1CCC(=O)N1C(=O)[C@@H](C)Sc1cc(C(C)(C)C)c(O)c(C(C)(C)C)c1`: the melting point lay in the range of 105 to 106 °C.

Regarding `CCCCCCCCCCCCCCCCOC(=O)c1cccc(N)c1`, the melting point was in the range of 52 to 53 °C.

With `CS(=O)(=O)c1ccc2c(c1)C(=O)Cc1ccccc1O2`, the melting point lay in the range of 105 to 106 °C.

Compound `Cn1c(-c2ccc(-n3cnc4ccccc43)cc2)cnc1[C@H](Cc1ccccn1)N(C=O)c1cc2ccccc2[nH]1` returned a melting point of 233 to 237 °C.

For `O=Cc1cccnc1Oc1ccc(Cl)c(Cl)c1`, the melting point was in the range of 97 to 99 °C.

Turning to `O=C1c2ccc([N+](=O)[O-])cc2C(=O)c2c(O)ccc(O)c21`, the melting point was 226 to 228 °C.

The compound `CSc1cc(C(=O)c2cnoc2C2CC2)ccc1C` returned a melting point of 85.5 to 86.1 °C.

Turning to `CC(=O)OCCCCCC1CC2=CC(=O)CCC2C2C(F)CC3(C)C(=O)CCC3C12` (stereo not given), the melting point is 78.4 °C.

As for `CC1(C)OC(=O)Nc2ccc(-c3cc(F)cc(-c4ccsc4)c3)cc21`, the melting point was 200 to 203 °C.

As for `CC(C)(CNC=O)c1ccc2nc(C3CCNCC3)[nH]c2c1`, the melting point fell in the range of 234 to 237 °C.

With `COc1ccc(CNc2c([N+](=O)[O-])cc(Br)c3ccccc23)c(OC)c1`, the melting point lay in the range of 104 to 105 °C.

On to `Nc1ncnc2c1ncn2OCC(CO)SCP(=O)(O)O` (stereo not given), for which the melting point was 195 to 197 °C.

Take `CC(C)(C)P(=O)(CCC(=O)O)CCC(=O)O`: the melting point came out at 174 °C.

The compound `CCOC(=O)COc1ccc(-c2noc3ccccc23)c(Cl)c1Cl` gave a melting point of 88 to 89 °C.

The compound `COc1ccc(OC)c2c1C[C@@H](O)[C@H](N1CCN(c3ccccc3C)CC1)C2` (relative stereo) showed a melting point of 217 to 219 °C.

In turn, `CCC(CC)N(Cc1ccc(C#N)cc1)S(=O)(=O)c1ccc(Cl)cc1` returned a melting point of 123 to 125 °C.

Compound `O=C1CC(c2ccc(OCc3ccccc3)cc2)=Nc2ccc(N3CCCC3)cc21` gave a melting point of 330 to 332 °C.

The compound `Cc1cccc(-c2n[nH]cc2-c2ccnc(-c3ccc(C#N)cc3)c2)n1` had a melting point of 198 °C.

Compound `N#Cc1c(Cl)c2ccccc2n(Cc2ccc(F)cc2)c1=O` displayed a melting point of 231 °C.

Compound `Oc1ccc(C2CCC(=CCC3OCCO3)CC2)cc1` (stereo not given) displayed a melting point of 126 °C.

The compound `N=C(N)N1CC(c2ccccc2)C(c2ccc(Cl)cc2)=N1` (stereo not given) came in with a melting point of 187 to 189 °C.

Take `CCC#CCOc1cc2c(cc1/C=C/c1ccc(C(=O)O)cc1)C(C)(C)CCC2(C)C`: the melting point fell in the range of 144 to 145 °C.

`COc1cccc(Oc2cccc(Oc3ccc4c(c3)OCO4)c2C(=O)O)c1` had a melting point of 146 to 148 °C.

`CC(C)c1cccc2c1O[C@@H](C(C)C)C(=S)N2CC(=O)O` displayed a melting point of 109 to 110 °C.

Consider `C=C(C)C(=O)N1CC(C)OC1(C)C` (stereo not given), for which the melting point amounted to 24 °C.

In turn, `c1ccc(CCNc2cc(-n3cccn3)nc(-c3cccs3)n2)nc1` yielded a melting point of 159 to 160 °C.

With `CCOC(=O)c1cc2cc(-c3ccc(C(C)=O)cc3)ccc2o1`, the melting point was in the range of 105 to 107 °C.

On to `CCCc1c(OCCCCCOc2ccc(C(=O)c3ccc(C(=O)O)cc3)cc2CCC(=O)O)ccc2c1OCCC2=O`, for which the melting point lay in the range of 175 to 177 °C.

Compound `C[C@@H]1COC(=O)N1c1nc(-c2ccc(Br)cc2)cs1` displayed a melting point of 189 to 190 °C.

`CN(C)CCCOc1ccc2ccc(N)nc2n1` showed a melting point of 88 °C.

Compound `O=C1N=NC(=O)c2c1[nH]c1c(Cl)cccc21` yielded a melting point above 250 °C.

On to `CC(=O)N(CCCC(=O)c1ccccc1)C(C)C`, for which the melting point lay within 36 to 39 °C.

Compound `CCOC(=O)C1Cc2cc(-c3ccc(NC(C)=O)cc3)ccc2O1` (stereo not given) came in with a melting point of 164 to 166 °C.

In the case of `O=C(CNC(=O)OCc1ccccc1)NCC1CCCCC1`, the melting point fell in the range of 95 to 98 °C.

With `ON=Cc1ccc(-c2ccc(O)cc2)c2ccoc12`, the melting point fell in the range of 219 to 220 °C.

With `COc1ccc(N(C(=O)CN2C(=O)C(Cc3nn(Cc4ccccc4)c4c3CCCC4)C(=O)N(c3ccccc3)c3ccccc32)C(C)C)cc1` (stereo not given), the melting point is 173 to 176 °C.

In turn, `COCCOCCN1C(=O)C2(COc3cc4c(cc32)OCCO4)c2c(OC)ccc(OC)c21` (stereo not given) had a melting point of 109 to 110 °C.

Take `CC(C)(COC(c1ccccc1)(c1ccccc1)c1ccccc1)C(=O)O`: the melting point was 153 to 158 °C.

`CC(Cl)c1nc2c(C(F)(F)F)cccc2c(O)c1C(=O)Nc1nccs1` (stereo not given) showed a melting point of 190 to 192 °C.

In turn, `COn1c(-c2ccccc2)nc2c(N)nc3ccccc3c21` yielded a melting point of 241 to 243 °C.

Compound `CCCc1nn(-c2ccc(C(F)(F)F)cn2)cc1CCCOc1c(CC(=O)O)cnn1C` came in with a melting point of 136 to 138 °C.

Take `O=c1c2c(n(-c3ccccc3)c3ncccc13)OC(CI)C2` (stereo not given): the melting point lay in the range of 178 to 180 °C.

For the compound `COc1ccc2c(C(=S)N(C)CC(=O)N(C)C)cccc2c1C(F)(F)F`, the melting point fell in the range of 172 to 175 °C.

For `Cc1cnc(CNC(=O)c2sc(-n3cnn(Cc4ccc(F)cc4)c3=O)cc2C)cn1`, the melting point is 189 to 191 °C.

The compound `Cc1cc(-c2ccc(S(N)(=O)=O)cc2)n(-c2ccc(S(C)=O)cc2)c1` (stereo not given) registered a melting point of 249 to 251 °C.

Consider `O=C(OCC1OC(n2cc(F)c(=O)[nH]c2=O)C(OC(=O)c2ccccc2)C1OC(=O)c1ccccc1)c1ccccc1` (stereo not given), for which the melting point lay within 208 to 209 °C.

As to `C[C@H](O)C(=O)N[C@@H]1C(=O)Nc2c(F)cccc2O[C@@H]1C`, the melting point was 221 to 225 °C.

The compound `Fc1ccccc1COC1COC(CCl)OC1` (stereo not given) returned a melting point of 60 to 62 °C.

`NC(=O)c1c(F)cccc1C(F)(F)F` displayed a melting point of 143 to 144 °C.

As to `O=C(CCCCC1(C(=O)O)CC1)CCCCC1(C(=O)O)CC1`, the melting point lay within 132 to 134 °C.

`CNC(=O)c1ccc(F)c2c1CC(N(CCCc1c[nH]c3ccc(F)cc13)CC1CC1)CO2` (stereo not given) came in with a melting point of 120 °C.

Regarding `O=S(=O)(CCCl)c1ccc(Cl)cc1`, the melting point was determined as 91 °C.

Consider `C=CCOc1cnc(SC)nc1`, for which the melting point lay in the range of 41 to 42 °C.

Take `Nc1nc(NCCCCCCNS(=O)(=O)c2cccc3ccccc23)nc2ccccc12`: the melting point lay within 98 to 101 °C.

Regarding `N#Cc1ccc(Nc2cc(Cc3c(Cl)cccc3Cl)nc(NCCCN3CCCC3=O)n2)cc1`, the melting point was in the range of 104 to 114 °C.

The compound `COC(=O)[C@H](O)[C@@H](NS(=O)(=O)c1ccc([N+](=O)[O-])cc1)c1ccccc1` gave a melting point of 187 to 189 °C.

In turn, `CCC(=O)OC(CC)c1ccc(Cl)c2nc3n(c12)CCCN3c1ccc(Cl)cc1Cl` (stereo not given) gave a melting point of 133 to 135 °C.

`CC(=O)OC(C)c1ccccc1CS(N)(=O)=O` (stereo not given): the melting point fell in the range of 135 to 140 °C.

The compound `CC(C(=O)O)c1ccc(-n2cc(Cl)cn2)cc1` (stereo not given) returned a melting point of 152 to 153 °C.

`O=C1C=CC(OC2CCCCC2)N1S(=O)(=O)c1ccccc1` (stereo not given) showed a melting point of 104 to 106 °C.
